From patent US12441757B2, “Platform for screening NAD+ binding proteins in a cellular context” (OREGON HEALTH & SCIENCE UNIVERSITY, priority 2020, dated 2025)

Legend:
Adenylate kinase 1 (AK1) = target: T1, Adenylate kinase 1 (AK1) (Homo sapiens, UniProt P00568); test: Labeling of recombinant AK1 by 2-ad-BAD and nucleotide competition; type: binding; details: 150 μM competitor, 0.3 μM 2-ad-BAD
T1 construct: purchased Novus Biologicals NBP1-50855
T1 sequence (P00568 1-194): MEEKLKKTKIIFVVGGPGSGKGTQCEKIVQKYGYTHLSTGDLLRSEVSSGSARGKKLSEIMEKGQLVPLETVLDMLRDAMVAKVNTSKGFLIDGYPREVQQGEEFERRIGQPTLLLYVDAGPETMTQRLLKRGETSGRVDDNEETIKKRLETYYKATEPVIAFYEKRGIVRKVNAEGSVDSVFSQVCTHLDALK
Description: FIG. 10. Validation of Adenylate kinase 1 (AK1) as a putative NAD^+/NADH binding protein. […] Recombinant AK1 (500 nM) in 100 mM NaCl, 50 mM HEPES [pH 7.4], 4 mM MgCl2, 0.2 mM TCEP was incubated with 150 μM of indicated competitor molecule for 10 min, followed by 10 min treatment with 0.3 μM 2-ad-BAD. Samples were then subjected to UV light for 5 min, conjugated to TAMRA using Click chemistry, separated by SDS-PAGE and in-gel fluorescence was recorded. […] (FIG. 10B) A differential scanning fluorimetry assay is supportive of NADH as novel AK1 ligand. Recombinant AK1 (0.1 mg/mL) in 100 mM NaCl, 50 mM HEPES, pH 7.4, 4 mM MgCl2, 7.5× SYPRO Orange was tested for thermal stability in the absence or presence of indicated nucleotides at 1 mM. Ordinate reports on the difference of melt peak temperature prompted by indicated treatments. Data are mean±SEM of 3 independent experiments.
Treatments. Recombinant PARP-1 (250 nM), PARP-10 (250 nM) or AK1 (500 nM; Novus Biologicals) were diluted in 100 mM NaCl, 50 mM HEPES [pH 7.4], 4 mM MgCl2, 0.2 mM TCEP. PARP-1 reactions also contained 10 μg/mL of activated calf thymus DNA (Sigma-Aldrich D4522), unless otherwise noted. In experiments reported in FIG. 2, the samples were treated with 0.1 μM 2-ad-BAD or ad-olaparib for 10 min. In competition experiments reported in FIG. 3 and Figure S3, samples were first treated with 150 μM of indicated nucleotides for 10 minute and then with 0.3 μM 2-ad-BAD for additional 10 min. All treatments occurred at RT. Samples were then kept in the dark or irradiated for 5 min in the RPR-100 Photochemical Reactor (Rayonet) equipped with 350 nm lamps at 4° C.
Click Chemistry. 25 μL of each sample was mixed with 5 μL of fatty acid free BSA and SDS to give a final Click reaction concentration of 1 mg/mL and 1%, respectively. Click reactions were started by adding 15 μL of PBS based 3× click reaction mix (final 1× concentrations shown): 100 μM Tris[(1-benzyl-1H-1,2,3triazol-4-yl)methyl]amine (TBTA, Click Chemistry Tools), 1 mM CuSO4, 40 μM tetramethylrhodamine (TAMRA)-azide (Click Chemistry Tools), 1 mM Tris(2-carboxyethyl)phosphine hydrochloride (TCEP, Thermo Fisher) and 5% tert-Butyl alcohol to each sample, and let to proceed for 1 h at RT while gently shaking. Reactions were stopped by adding 4× Laemmli sample buffer and boiling at 95° C. for 5 min.
In gel fluorescence and staining. Samples were loaded to 10 or 12% SDS-polyacrylamide gels and run until the dye front left the gel. In-gel fluorescence was detected with ChemiDoc XRS+ (Biorad) using Rhodamine filter and then the gels were stained with Coomassie blue or Silver using standard protocols.

PARP-1 = target: T2, PARP-1 (Homo sapiens, UniProt P09874); details: cited from earlier work
T2 construct: Full length His6-PARP-1 and His6-SUMO-PARP-10 proteins we expressed and purified; His6 (N); made in house

[1] = test system: inosine monophosphate dehydrogenase; details: cited from earlier work

T2 sequence (P09874 whole entry): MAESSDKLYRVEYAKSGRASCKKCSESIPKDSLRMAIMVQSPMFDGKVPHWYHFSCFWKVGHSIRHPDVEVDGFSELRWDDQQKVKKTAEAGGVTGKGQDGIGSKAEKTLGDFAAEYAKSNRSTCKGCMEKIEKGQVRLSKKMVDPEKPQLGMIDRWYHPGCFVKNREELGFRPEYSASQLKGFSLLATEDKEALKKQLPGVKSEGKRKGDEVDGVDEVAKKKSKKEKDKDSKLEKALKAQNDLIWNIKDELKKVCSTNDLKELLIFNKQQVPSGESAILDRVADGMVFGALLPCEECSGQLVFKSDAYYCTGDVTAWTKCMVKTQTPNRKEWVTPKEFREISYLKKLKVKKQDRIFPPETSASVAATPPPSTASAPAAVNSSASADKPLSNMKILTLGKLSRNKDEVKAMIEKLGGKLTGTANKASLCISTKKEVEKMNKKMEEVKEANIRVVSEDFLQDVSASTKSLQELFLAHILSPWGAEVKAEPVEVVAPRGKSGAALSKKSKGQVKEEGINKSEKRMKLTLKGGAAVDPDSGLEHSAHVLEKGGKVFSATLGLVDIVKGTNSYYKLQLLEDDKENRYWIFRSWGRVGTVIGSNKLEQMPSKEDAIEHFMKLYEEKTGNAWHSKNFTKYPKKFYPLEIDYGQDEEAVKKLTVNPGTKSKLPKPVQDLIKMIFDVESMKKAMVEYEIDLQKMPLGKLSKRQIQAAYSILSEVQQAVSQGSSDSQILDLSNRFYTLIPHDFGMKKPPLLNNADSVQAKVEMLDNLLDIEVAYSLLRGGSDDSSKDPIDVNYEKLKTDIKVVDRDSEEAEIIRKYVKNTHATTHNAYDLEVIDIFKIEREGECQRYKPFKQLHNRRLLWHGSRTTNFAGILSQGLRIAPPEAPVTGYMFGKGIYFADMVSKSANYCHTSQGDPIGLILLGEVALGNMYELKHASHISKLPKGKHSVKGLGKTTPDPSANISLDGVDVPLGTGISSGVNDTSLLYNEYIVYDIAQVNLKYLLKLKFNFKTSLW

Compound: NC(=O)c1cccc([C@@H]2O[C@H](COP(=O)(O)OP(=O)(O)OC[C@H]3O[C@@H](n4cnc5c(N)ncnc54)[C@H](O)[C@@H]3O)[C@@H](O)[C@H]2O)c1 [BAD, benzamide adenine dinucleotide]
- competition of 2-ad-BAD labeling of recombinant AK1 (Adenylate kinase 1 (AK1)): effectively competed
- DNA dependence of binding to PARP-1 (PARP-1): DNA-dependent
- binding to PARP-1 and inhibition of its enzymatic activity (PARP-1): binds to PARP-1 and inhibits its enzymatic activity
- binding to and inhibition of NAD^+/NADH binding enzymes (e.g., inosine monophosphate dehydrogenase) [1]: binds to and inhibits
